# Assays:
# [1] = system: KB tumors; assay: Ex vivo biodistribution in KB tumor xenografts; set-up: species or system CB17 SCID mice; details: for KB tumor uptake: 13 ± 1 days after subcutaneous tumor induction, n = 5, mean ± SD
# Description: For the assessment of the accumulation in the tumors of [^44Sc]Sc(DO3AM-NI) and [^68Ga]Ga(DO3AM-NI), ex vivo biodistribution studies were performed 90 and 240 min post injection using KB tumor xenografts.
# (§1) For tumor induction, SCID mice were injected with 5x10^6 KB tumor cells in 0.9% NaCl (100 µL) subcutaneously into the left shoulder area. The tumor growth was assessed by caliper measurements, and tumor size was calculated using the following formula: (largest diameter × smallest diameter^2)/2. In vivo experiments were carried out approximately 13 ± 1 days after […] injection of tumor cells at the tumor volume of approximately 110 mm^3.
# (§2) For the determination of ex vivo biodistribution of the radiotracers, control and KB tumor-bearing mice were injected intravenously with 8.42 ± 0.38 MBq of ^68Ga- or ^44Sc-labeled DO3AM-NI via the tail vein. Mice were euthanized with 5% isoflurane 90 min or 4 h after intravenous radiotracer injection. Three tissue samples were taken from the selected organs, and their weight and radioactivity were measured with a calibrated gamma counter (Perkin-Elmer Packard Cobra, Waltham, MA, USA). The radiotracer uptake was expressed as %ID/g tissue.
# [2] = In vivo PET/MRI imaging of healthy control SCID mice, quantitative SUV analysis; set-up: species or system CB17 SCID mice; details: 90 and 240 min after tracer injection
# Description: The biodistribution of ^44Sc- and ^68Ga-labeled DO3AM-NI was investigated using healthy control and KB tumor-bearing SCID mice. PET/MRI imaging and ex vivo studies were performed 90 and 240 min after intravenous injection of ^44Sc- or ^68Ga-labeled DO3AM-NI. By the qualitative analysis of the PET/MRI images, the kidneys and the bladder with urine were clearly visualized using both radiotracers at each investigated time point; however, in other abdominal and thoracic organs, low uptake was observed.
# For in vivo imaging studies, healthy control and KB tumor-bearing CB17 SCID mice were injected with 8.42 ± 0.38 MBq of ^68Ga- or ^44Sc-labeled DO3AM-NI via the lateral tail vein 13 ± 1 days after the inoculation of KB tumor cells. Then, 65 and 225 min after radiotracer injection, mice were anaesthetized by 3% isoflurane (Forane) with a dedicated small animal anesthesia device and whole-body T1-weighted MRI scans were performed (3D GRE EXT multi-FOV; TR/TE 15/2 ms; phase: 100; FOV 60 mm; NEX 2) using the preclinical nanoScan PET/MRI system with 1 Tesla magnetic field (Mediso Ltd., Hungary). […]
# Quantitative radiotracer uptake was expressed in terms of standardized uptake value (SUV), SUV = [VOI activity (Bq/mL)]/[injected activity (Bq)/animal weight (g)], assuming a density of 1 g/mL. […]
# [3] = Stability of labeled complexes in mouse plasma, Na2H2EDTA and oxalic acid by radio-HPLC; assay type: in vitro ADME
# Description: (§3) Subsequently, the octanol/water partition coefficient (logP) of the labeled complexes was determined to be −3.89 for [^68Ga]Ga(DO3AM-NI) and −2.59 for [^44Sc]Sc(DO3AM-NI). […] To assess the labeled compounds’ stability, the chelates were mixed with the solution of mouse plasma, Na2H2EDTA and oxalic acid, respectively. Aliquots were then taken at different time points (0, 60, 120 and 240 min) and injected into the radio-HPLC column, and the chromatograms were analyzed. After 240 min, the RCP of the samples was above 93% in all three cases.
# A 10 µL volume of [^68Ga]Ga(DO3AM-NI) and [^44Sc]Sc(DO3AM-NI) solution was added to the solution of 90 µL of mouse plasma, Na2H2EDTA (0.01 M) and oxalic acid (0.01 M), respectively. Samples were analyzed by radio-HPLC at the beginning and after 60, 120 and 240 min. The analytical conditions were the same as detailed for the quality control of the labeled compound.
# [4] = system: KB tumors; assay: In vivo PET/MRI imaging of KB tumor-bearing mice, quantitative SUV analysis; set-up: species or system CB17 SCID mice; details: 240 min after injection
# Description: The tumor-specific accumulation of [^44Sc]Sc(DO3AM-NI) and [^68Ga]Ga(DO3AM-NI) was investigated by PET/MRI imaging 90 and 240 min after radiotracer injection using KB tumor-bearing mice. The subcutaneously growing KB tumors were clearly visualized using [^44Sc]Sc(DO3AM-NI) 90 and 240 min post injection with relatively higher SUVmean and SUVmax values (SUVmean: 1.46 ± 0.32 and SUVmax: 2.35 ± 0.47 at 90 min and SUVmean: 0.67 ± 0.03 and SUVmax: 1.55 ± 0.28 at 240 min). Lower accumulation was found in the same KB tumors by using the ^68Ga-labeled molecule (SUVmean: 0.79 ± 0.10, SUVmax: 1.94 ± 0.40 at 90 min and SUVmean: 0.51 ± 0.09 and SUVmax: 1.23 ± 0.10 at 240 min); however, this difference between the radiotracers was not significant (Figure 4E). […] In contrast, no significant differences were found between the T/M SUV values of the two radiotracers 90 min post injection (Figure 4F).
# as §1
# For in vivo imaging studies, healthy control and KB tumor-bearing CB17 SCID mice were injected with 8.42 ± 0.38 MBq of ^68Ga- or ^44Sc-labeled DO3AM-NI via the lateral tail vein 13 ± 1 days after the inoculation of KB tumor cells. Then, 65 and 225 min after radiotracer injection, mice were anaesthetized by 3% isoflurane (Forane) with a dedicated small animal anesthesia device and whole-body T1-weighted MRI scans were performed (3D GRE EXT multi-FOV; TR/TE 15/2 ms; phase: 100; FOV 60 mm; NEX 2) using the preclinical nanoScan PET/MRI system with 1 Tesla magnetic field (Mediso Ltd., Hungary). After MRI imaging, 20 min static whole-body PET scans were acquired (90 min and 4 h after radiotracer injection).
# Quantitative radiotracer uptake was expressed in terms of standardized uptake value (SUV), SUV = [VOI activity (Bq/mL)]/[injected activity (Bq)/animal weight (g)], assuming a density of 1 g/mL. Volumes of interest (VOI) were manually drawn around the edge of the organ or tumor activity using the InterView™ FUSION (Mediso Ltd., Hungary) image analysis software. Tumor-to-muscle (T/M) ratios were computed as the ratio between the activity in the tumor VOI and in the background (muscle) VOI. Skeletal muscles of the right shoulder area were used as background.
# [5] = Octanol/water partition coefficient (logP) of labeled complexes; assay type: physicochemical; details: 1-octanol/water, triplicates
# Description: as §3
# A 10 µL volume of [^68Ga]Ga(DO3AM-NI) and [^44Sc]Sc(DO3AM-NI) solution (~5 MBq) was mixed with 500 µL of 1-octanol and 490 µL of water in an Eppendorf vial, respectively. The mixture was shaken with a vortex shaker (600 rpm) for 10 min and centrifuged (6000 rpm) for 5 min. Then, 100 µL from the octanol phase and 1 μL from the aqueous phase were pipetted into vials, and the aqueous aliquot was diluted to 100 µL with water in order to minimize the effects of sample geometry and the high difference of activity concentrations in the two solvents. The radioactivity of the fractions was determined with a gamma counter. The measurements were performed in triplicates for both labeled compounds.
# [6] = Ex vivo biodistribution in healthy control SCID mice; set-up: species or system CB17 SCID mice; details: mean ± SD
# Description: Ex vivo biodistribution studies were carried out 90 min and 240 min after intravenous injection of ^44Sc- or ^68Ga-labeled DO3AM-NI, and the accumulated activities of the organs and tissues were determined using a gamma counter. By the quantitative analysis of the ex vivo data, significant differences were found between the %ID/g values when ^44Sc- and ^68Ga-labeled DO3AM-NI accumulations were compared. […] In contrast, e.g., [^18F]fluorine- [28], [^131I]iodine- [29], [^99mTc]technetium- [30] and [^64Cu]copper-labeled nitroimidazole-based probes, due to their chemical properties, were mainly metabolized via the liver, and the large abdominal accumulation impaired the evaluation of abdominal tumors in the PET images. The ^44Sc- and ^68Ga-labeled nitroimidazole derivatives had more favorable properties in terms of the reporting and evaluation of PET images and due to their rapid elimination through the urinary system.
# as §2
compound,measurement,setting,value
O=C([O-])CN1CCN(CC(=O)[O-])CCN(CC(=O)NCCn2ccnc2[N+](=O)[O-])CCN(CC(=O)[O-])CC1.[68Ga+3] [[^68Ga]Ga(DO3AM-NI)],T/M (tumor-to-muscle ratio),[1]; 90 min after injection,6.28 ± 1.11
same,KB tumor uptake,[1]; 90 min after injection,0.62 ± 0.10 %ID/g
same,T/M (tumor-to-muscle ratio),[1]; 240 min after injection,7.51 ± 1.13
same,KB tumor uptake,[1]; 240 min after injection,0.46 ± 0.07 %ID/g
same,"uptake (SUV) in liver, spleen, kidney, intestines, lung, heart and brain compared with [^44Sc]Sc(DO3AM-NI)",[2],significantly (p ≤ 0.01) higher
same,RCP after 240 min,[3]; Na2H2EDTA (0.01 M),above 93%
same,RCP after 240 min,[3]; mouse plasma,above 93%
same,RCP after 240 min,[3]; oxalic acid (0.01 M),above 93%
same,tumor-to-muscle ratio T/M SUVmax,[4],41.72 ± 13.61
same,tumor-to-muscle ratio T/M SUVmean,[4],85.66 ± 6.06
same,octanol/water partition coefficient (logP),[5],−3.89
same,Blood uptake,[6]; 90 min after i.v. injection,0.81 ± 0.22 %ID/g
same,Fat uptake,[6]; 90 min after i.v. injection,0.13 ± 0.10 %ID/g
same,Heart uptake,[6]; 90 min after i.v. injection,0.26 ± 0.06 %ID/g
same,Kidney uptake,[6]; 90 min after i.v. injection,1.32 ± 0.47 %ID/g
same,Large intestine uptake,[6]; 90 min after i.v. injection,0.20 ± 0.13 %ID/g
same,Liver uptake,[6]; 90 min after i.v. injection,0.43 ± 0.11 %ID/g
same,Lung uptake,[6]; 90 min after i.v. injection,0.49 ± 0.08 %ID/g
same,Muscle uptake,[6]; 90 min after i.v. injection,0.10 ± 0.03 %ID/g
same,Small intestine uptake,[6]; 90 min after i.v. injection,0.25 ± 0.10 %ID/g
same,Spleen uptake,[6]; 90 min after i.v. injection,0.29 ± 0.14 %ID/g
same,Stomach uptake,[6]; 90 min after i.v. injection,0.21 ± 0.04 %ID/g
same,Urine uptake,[6]; 90 min after i.v. injection,65.94 ± 5.21 %ID/g
same,Blood uptake,[6]; 240 min after i.v. injection,0.65 ± 0.11 %ID/g
same,Fat uptake,[6]; 240 min after i.v. injection,0.12 ± 0.08 %ID/g
same,Heart uptake,[6]; 240 min after i.v. injection,0.22 ± 0.04 %ID/g
same,Kidney uptake,[6]; 240 min after i.v. injection,1.21 ± 0.17 %ID/g
same,Large intestine uptake,[6]; 240 min after i.v. injection,0.15 ± 0.06 %ID/g
same,Liver uptake,[6]; 240 min after i.v. injection,0.37 ± 0.10 %ID/g
same,Lung uptake,[6]; 240 min after i.v. injection,0.46 ± 0.09 %ID/g
same,Muscle uptake,[6]; 240 min after i.v. injection,0.06 ± 0.03 %ID/g
same,Small intestine uptake,[6]; 240 min after i.v. injection,0.14 ± 0.04 %ID/g
same,Spleen uptake,[6]; 240 min after i.v. injection,0.32 ± 0.18 %ID/g
same,Stomach uptake,[6]; 240 min after i.v. injection,0.22 ± 0.06 %ID/g
same,Urine uptake,[6]; 240 min after i.v. injection,17.08 ± 7.97 %ID/g

# — paper PMC9228955, “Synthesis, Physicochemical, Labeling and In Vivo Characterization of ^44Sc-Labeled DO3AM-NI as a Hypoxia-Sensitive PET Probe” (Pharmaceuticals, 2022)
